Data set [1] relates to hepatocytes. The data set is described as follows: Cell damage of hepatocytes by hydrogenperoxide (FIG. 5). Conditions: 1 mM/l in N4 solution + 20 mM/l H2O2. Format: cell-based. As to the method:
1: N4+20 mM/l H2O2 • graph no. 2: N4+20 mM/l H2O2+1 mM/l 4-chloro-N-methyl-benzohydroxamic acid • graph no. 3: N4+20 mM/l H2O2+1 mM/l 2-hydroxy-3-methyl-isocarbosteryl • graph no. 4: N4+20 mM/l H2O2+1 mM/l 3,4,5-trimethoxy-N-methyl-benzohydroxamic acid • graph no. 5: N4+20 mM/l H2O2+1 mM/l 3,4-dimethoxy-N-methyl-hydroxamic acid, N4 meaning the solution according to example II given hereinafter, but without Trolox and without hydroxamic acid derivative.

The subject of data set [2] is rat liver endothelial cells. Briefly: Hypothermic injury of cultivated rat liver endothelial cells, LDH release (FIG. 1). The data set is classed as cell-based. Conditions: 1 mM; 72 hrs at 4° C. in UW solution, aerobic; rewarmed 3 hrs at 37° C. in cell culture medium. As to the method: Cultivated rat liver endothelial cells were incubated for 72 hrs at 4° C. in University of Wisconsin solution (UW) under aerobic conditions in the presence of, and in the absence of 1 mM of salicyl-N-methylhydroxamic acid, and subsequently rewarmed for 3 hrs in a cell culture medium (37° C.). The release of cytosolic lactate dehydrogenase (LDH) served as the parameter of the cell damage.
A general note: LDH in the medium is a marker of cell lysis.

Data set [3] relates to rat hepatocytes. Briefly: Hypothermic injury of cultivated rat hepatocytes in UW solution, LDH release (FIG. 2). Conditions: 1 mM; 24 hrs at 4° C. in UW solution, aerobic; reheated 3 hrs at 37° C. in cell culture medium. Format: cell-based. As to the method:
Cultivated rat hepatocytes were incubated for 24 hrs at 4° C. in a University of Wisconsin solution (UW) under aerobic conditions in the presence of, and in the absence of 1 mM of 3,4-dimethoxy-N-methyl-benzohydroxamic acid, and subsequently reheated for 3 hrs in a cell culture medium (37° C.). The secretion of cytosolic lactate […] (LDH) served as the parameter of the cell damage.

A short description of data set [4]: Neutralization curve / buffer capacity (FIG. 3). The conditions noted are these: for usable buffer capacity in the range of the physiological pH value: based on the ratio of spent base to substrate. The data set is classed as physicochemical. From the text: The usable buffer capacity in the range of the physiological pH value; with N-acetylhistidine 60%, and with histidine 30% based on the ratio of spent base to substrate.

Data set [5] deals with iron-dependent hypothermic injury, cold-induced apoptosis. Briefly: Inhibition of iron-dependent hypothermic injury / cold-induced apoptosis by iron-chelating agents. Format: cell-based. From the text:
Iron-chelating agents may serve for the inhibition of the iron-dependent hypothermic injury, or of the cold-induced apoptosis.

For data set [6], the system named is rat hepatocytes. The data set is described as follows: Toxicity of histidine under warm conditions in cultivated rat hepatocytes (FIG. 4). The data set is classed as cell-based. The conditions noted are these: 198 mM; 5 hrs at 37° C., aerobic, Krebs-Henseleit buffer, pH 7.2. As to the method:
Cultivated rat hepatocytes were incubated for 5 hrs at 37° C. under aerobic conditions in the presence of, and in the absence of 198 mM of L-histidine, or 198 mM of N-acetylhistidine. The base solution was Krebs-Henseleit buffer (KH), a physiological saline solution often used in cell cultures; the NaCl concentration of the histidine (derivative) containing solution was decreased by 99 mM and the histidine (derivative) solution was adjusted by the addition of HCl or NAOH to pH 7.2.

The results in this text go back to US9603354B2, “Protective solutions for organs” (DR. FRANZ KOEHLER CHEMIE GMBH, priority 2002, dated 2017).

`CN(O)C(=O)c1ccc(Cl)cc1` [4-chloro-N-methyl-benzohydroxamic acid]: the “protection from cell damage by hydrogenperoxide” value (“protection from cell damage” for short) in data set [1] is recorded as “protection”.

For `CN(O)C(=O)c1ccccc1O` [salicyl-N-methylhydroxamic acid], the “inhibition of hypothermic injury (release of cytosolic LDH)” value in data set [2] was “inhibition of hypothermic injury”.

As to `COc1ccc(C(=O)N(C)O)cc1OC` [3,4-dimethoxy-N-methyl-benzohydroxamic acid], the “protection from cell damage” value in data set [1] is on record as “protection”. Also, the “inhibition of hypothermic injury (cytosolic LDH)” value in data set [3] is reported as “inhibition of hypothermic injury”.

Take `CC(=O)N[C@@H](Cc1c[nH]cn1)C(=O)O` [N-acetylhistidine]: the “usable buffer capacity in the range of the physiological pH value” in data set [4] was 60%. In addition, in data set [4] (factor versus histidine/histidine HCl), the “buffer capacity improved by factor compared to histidine/histidine HCl” value is listed as 2.

`O=C(O)CN(CCN(CC(=O)O)CC(=O)O)CC(=O)O` [EDTA]: the “effectiveness in avoiding iron-dependent hypothermic injury” value (shortened to “effectiveness”) in data set [5] is reported as “ineffective”.

`COc1cc(C(=O)N(C)O)cc(OC)c1OC` [3,4,5-trimethoxy-N-methyl-benzohydroxamic acid]: the “protection from cell damage” value in data set [1] is “protection”.

As for `N[C@@H](Cc1c[nH]cn1)C(=O)O` [histidine, L-histidine], in data set [6], the “toxicity under warm conditions” value is on record as “toxicity”. The “usable buffer capacity in the range of the physiological pH value” in data set [4] turned out to be 30%. In addition, in data set [5], the “effectiveness” value was “ineffective”.

Turning to `Cc1cc2ccccc2c(=O)n1O` [2-hydroxy-3-methyl-isocarbosteryl, 2-hydroxy-3-methyl-isocarbostyril], in data set [1], the “protection from cell damage” value was “protection”.

In the case of `O=c1c2ccccc2nnn1O` [3,4-dihydro-3-hydroxy-4oxo-1,2,3-benzotriazine], the “effectiveness” value in data set [5] is “ineffectiveness”.

For `O=C1CCC(=O)N1O` [N-hydroxysuccinimide], in data set [5], the “effectiveness” value was “ineffectiveness”.
